Patent publication US9499538B2, “Estrogen receptor modulators and uses thereof” (Seragon Pharmaceuticals, Inc., priority 2012, dated 2016)

Key:
ER-α in MCF-7 cells = target: T1, ER-α in MCF-7 cells (Homo sapiens, UniProt P03372); experiment: Breast Cancer Cell ER-α In Cell Western Assay (SP1); assay type: cell-based; details: 4 or 24 hr post compound addition; for Emax: MCF7, SP1 antibody, read-out: ER-α In Cell Western Assay (SP1) Max Response; for DC50: SP1 antibody, read-out: ER-α In Cell Western Assay (SP1) IC50
T1 construct: endogenous in cells; host or cells: MCF-7
T1 sequence (P03372 1-595): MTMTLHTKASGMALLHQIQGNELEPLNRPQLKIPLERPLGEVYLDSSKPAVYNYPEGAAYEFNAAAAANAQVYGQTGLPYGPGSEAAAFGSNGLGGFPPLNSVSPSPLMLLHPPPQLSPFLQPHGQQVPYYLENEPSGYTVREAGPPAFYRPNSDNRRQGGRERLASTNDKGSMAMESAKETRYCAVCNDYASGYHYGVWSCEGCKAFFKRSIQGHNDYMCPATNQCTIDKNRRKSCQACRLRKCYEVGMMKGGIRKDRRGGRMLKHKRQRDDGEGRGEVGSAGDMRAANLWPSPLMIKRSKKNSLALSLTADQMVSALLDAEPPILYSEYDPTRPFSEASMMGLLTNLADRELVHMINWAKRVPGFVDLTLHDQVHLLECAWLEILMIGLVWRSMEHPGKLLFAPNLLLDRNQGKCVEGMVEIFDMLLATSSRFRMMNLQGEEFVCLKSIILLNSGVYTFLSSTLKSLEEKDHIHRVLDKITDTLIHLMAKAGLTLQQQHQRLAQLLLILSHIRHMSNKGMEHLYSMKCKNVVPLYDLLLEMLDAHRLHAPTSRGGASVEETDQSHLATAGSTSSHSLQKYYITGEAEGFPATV
Summary of the method: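 MCF-7 cells in charcoal-stripped FBS medium, treated with 11-point semilog dilutions (0.3–0.000003 μM final) for 4 or 24 h. Fixed cells immunostained with SP1 antibody (800 nm) and DRAQ5 DNA (700 nm); ER/DNA ratio expressed as % of untreated cells.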

MCF-7 cells = experiment: Breast Cancer Cell Viability Assays (MCF-7, CellTiter-Glo); assay type: cell-based; details: 5 days' compound exposure; for IC50: Homo sapiens, MCF7, 120 h
Summary of the method: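 MCF-7 cells (320/well, RPMI with 10% FBS) exposed for 5 days to an eleven-point semilog series, 0.3–0.000003 μM final. Viability read by CellTiter-Glo luminescence, expressed as background-corrected percent of untreated cells.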

Row | Emax (ER-α in MCF-7 cells) [%] | DC50 (ER-α in MCF-7 cells) [nM] | IC50 (MCF-7 cells) [nM] | SMILES | MCF7 Viability Assay Max Response (MCF-7 cells)
1 | ≥ 40 | ≤ 100 | ≤ 100 | CC/C(=C(/c1ccc(/C=C/c2nnn[nH]2)cc1)c1ccc2[nH]nc(F)c2c1)c1ccncc1Cl [Example 171, 5-((E)-1-(4-((E)-2-(2H-Tetrazol-5-yl)vinyl)phenyl)-2-(3-chloropyridin-4-yl)but-1-en-1-yl)-3-fluoro-1H-indazole] | ++ (++ = a single % value ≧ 40%)
2 | ≥ 40 | ≤ 100 | ≤ 100 | Fc1n[nH]c2ccc(/C(=C(/c3ccncc3Cl)C3CCC3)c3ccc(/C=C/c4nnn[nH]4)cc3)cc12 [Example 172, 5-((E)-1-(4-((E)-2-(2H-Tetrazol-5-yl)vinyl)phenyl)-2-(3-chloropyridin-4-yl)-2-cyclobutylvinyl)-3-fluoro-1H-indazole] | ++ (++ = a single % value ≧ 40%)
3 | ≥ 40 | ≤ 100 | ≤ 100 | Fc1ccc(/C(=C(\c2ccc(/C=C/c3nnn[nH]3)cc2)c2cccc3[nH]ncc23)C2CCC2)c(Cl)c1 [Example 173, 4-((E)-1-(4-((E)-2-(2H-Tetrazol-5-yl)vinyl)phenyl)-2-(2-chloro-4-fluorophenyl)-2-cyclobutylvinyl)-1H-indazole] | ++ (++ = a single % value ≧ 40%)
4 | ≥ 40 | ≤ 100 | ≤ 100 | Fc1n[nH]c2ccc(/C(=C(/c3ccccc3)C3CCC3)c3ccc(/C=C/c4nnn[nH]4)cc3)cc12 [Example 174, 5-((E)-1-(4-((E)-2-(1H-Tetrazol-5-yl)vinyl)phenyl)-2-cyclobutyl-2-phenylvinyl)-3-fluoro-1H-indazole] | ++ (++ = a single % value ≧ 40%)
5 | ≥ 40 | ≤ 100 | ≤ 100 | Fc1ccc(/C(=C(\c2ccc(/C=C/c3nnn[nH]3)cc2)c2ccc3scnc3c2)C2CCC2)c(Cl)c1 [Example 175, 5-((E)-1-(4-((E)-2-(2H-Tetrazol-5-yl)vinyl)phenyl)-2-(2-chloro-4-fluorophenyl)-2-cyclobutylvinyl)benzo[d]thiazole] | ++ (++ = a single % value ≧ 40%)
6 | ≥ 40 | ≤ 100 | ≤ 100 | Clc1cnccc1/C(=C(\c1ccc(/C=C/c2nnn[nH]2)cc1)c1ccc2scnc2c1)C1CCC1 [Example 176, 5-((E)-1-(4-((E)-2-(2H-Tetrazol-5-yl)vinyl)phenyl)-2-(3-chloropyridin-4-yl)-2-cyclobutylvinyl)benzo[d]thiazole] | ++ (++ = a single % value ≧ 40%)
7 | ≥ 40 | ≤ 100 | ≤ 100 | Cc1cnccc1/C(=C(\c1ccc(/C=C/c2nnn[nH]2)cc1)c1ccc2scnc2c1)C1CCC1 [Example 177, 5-((E)-1-(4-((E)-2-(2H-Tetrazol-5-yl)vinyl)phenyl)-2-cyclobutyl-2-(3-methylpyridin-4-yl)vinyl)benzo[d]thiazole] | ++ (++ = a single % value ≧ 40%)
8 | ≥ 40 | ≤ 100 | ≤ 100 | Fc1ccc(/C(=C(\c2ccc(/C=C/c3nnn[nH]3)cc2)c2ccc3nccn3c2)C2CCC2)c(Cl)c1 [Example 178, 6-((E)-1-(4-((E)-2-(2H-Tetrazol-5-yl)vinyl)phenyl)-2-(2-chloro-4-fluorophenyl)-2-cyclobutylvinyl)imidazo[1,2-a]pyridine] | ++ (++ = a single % value ≧ 40%)
9 | ≥ 40 | ≤ 100 | ≤ 100 | CC/C(=C(/c1ccc(/C=C/C(=O)NCCO)cc1)c1ccc2[nH]ncc2c1)c1ccc(F)cc1Cl [Example 179, (E)-3-(4-((E)-2-(2-Chloro-4-fluorophenyl)-1-(1H-indazol-5-yl)but-1-en-1-yl)phenyl)-N-(2-hydroxyethyl)acrylamide] | ++ (++ = a single % value ≧ 40%)
10 | ≥ 40 | ≤ 100 | ≤ 100 | Cc1cscc1/C(=C(\c1ccc(/C=C/C(=O)NCCO)cc1)c1ccc2scnc2c1)C1CCC1 [Example 180, (E)-3-(4-((E)-1-(Benzo[d]thiazol-5-yl)-2-cyclobutyl-2-(4-methylthiophen-3-yl)vinyl)phenyl)-N-(2-hydroxyethyl)acrylamide] | ++ (++ = a single % value ≧ 40%)
11 | ≥ 40 | ≤ 100 | ≤ 100 | Cc1cscc1/C(=C(\c1ccc(/C=C/C(=O)NCCO)cc1)c1ccc2[nH]nc(F)c2c1)C1CCC1 [Example 181, (E)-3-(4-((E)-2-Cyclobutyl-1-(3-fluoro-1H-indazol-5-yl)-2-(4-methylthiophen-3-yl)vinyl)phenyl)-N-(2-hydroxyethyl)acrylamide] | ++ (++ = a single % value ≧ 40%)
12 | ≥ 40 | ≤ 100 | ≤ 100 | O=C(/C=C/c1ccc(/C(=C(\c2ccccc2)C2CCC2)c2ccc3[nH]nnc3c2)cc1)NCCO [Example 182, (E)-3-(4-((E)-1-(1H-Benzo[d][1,2,3]triazol-5-yl)-2-cyclobutyl-2-phenylvinyl)phenyl)-N-(2-hydroxyethyl)acrylamide] | ++ (++ = a single % value ≧ 40%)
13 | ≥ 40 | ≤ 100 | ≤ 100 | O=C(/C=C/c1ccc(/C(=C(\c2ccccc2)C2CCC2)c2cccc3[nH]ncc23)cc1)NCCO [Example 183, (E)-3-(4-((E)-2-Cyclobutyl-1-(1H-indazol-4-yl)-2-phenylvinyl)phenyl)-N-(2-hydroxyethyl)acrylamide] | ++ (++ = a single % value ≧ 40%)
14 | ≥ 40 | ≤ 100 | ≤ 100 | CC/C(=C(/c1ccc(/C=C/C(=O)NC)cc1)c1ccc2scnc2c1)c1ccc(F)cc1Cl [Example 184, (E)-3-(4-((E)-1-(Benzo[d]thiazol-5-yl)-2-(2-chloro-4-fluorophenyl)but-1-en-1-yl)phenyl)-N-methylacrylamid] | ++ (++ = a single % value ≧ 40%)
15 | ≥ 40 | ≤ 100 | ≤ 100 | CC/C(=C(/c1ccc(/C=C/C(=O)Nc2nccs2)cc1)c1ccc2[nH]ncc2c1)c1ccc(F)cc1Cl [Example 185, (E)-3-(4-((E)-2-(2-Chloro-4-fluorophenyl)-1-(1H-indazol-5-yl)but-1-en-1-yl)phenyl)-N-(thiazol-2-yl)acrylamide] | ++ (++ = a single % value ≧ 40%)
16 | ≥ 40 | ≤ 100 | ≤ 100 | O=C(/C=C/c1ccc(/C(=C(\c2ccc(F)cc2Cl)C2CCC2)c2ccc3[nH]nc(F)c3c2)cc1)Nc1nccs1 [Example 186, (E)-3-(4-((E)-2-(2-Chloro-4-fluorophenyl)-2-cyclobutyl-1-(3-fluoro-1H-indazol-5-yl)vinyl)phenyl)-N-(thiazol-2-yl)acrylamide] | ++ (++ = a single % value ≧ 40%)
17 | ≥ 40 | ≤ 100 | ≤ 100 | O=C(/C=C/c1ccc(/C(=C(\c2ccc(F)cc2Cl)C2CCC2)c2ccc3nccn3c2)cc1)NCCO [Example 187, (E)-3-(4-((E)-2-(2-Chloro-4-fluorophenyl)-2-cyclobutyl-1-(imidazo[1,2-a]pyridin-6-yl)vinyl)phenyl)-N-(2-hydroxyethyl)acrylamide] | ++ (++ = a single % value ≧ 40%)
18 | ≥ 40 | ≤ 100 | ≤ 100 | O=C(/C=C/c1ccc(/C(=C(\c2ccccc2)C2CCC2)c2ccc3[nH]nc(F)c3c2)cc1)NCC(O)CO (centres unmarked) [Example 188, (E)-3-(4-((E)-2-Cyclobutyl-1-(3-fluoro-1H-indazol-5-yl)-2-phenylvinyl)phenyl)-N-(2,3-dihydroxypropyl)acrylamide] | ++ (++ = a single % value ≧ 40%)
19 | ≥ 40 | ≤ 100 | ≤ 100 | O=C(/C=C/c1ccc(/C(=C(\c2ccccc2)C2CCC2)c2ccc3[nH]nc(F)c3c2)cc1)NC(CO)CO [Example 189, (E)-3-(4-((E)-2-Cyclobutyl-1-(3-fluoro-1H-indazol-5-yl)-2-phenylvinyl)phenyl)-N-(1,3-dihydroxypropan-2-yl)acrylamide] | ++ (++ = a single % value ≧ 40%)
20 | ≥ 40 | ≤ 100 | ≤ 100 | CNC(=O)/C=C/c1ccc(/C(=C(\c2ccccc2)C2CCC2)c2ccc3[nH]nc(F)c3c2)cc1 [Example 190, (E)-3-(4-((E)-2-Cyclobutyl-1-(3-fluoro-1H-indazol-5-yl)-2-phenylvinyl)phenyl)-N-methylacrylamide] | ++ (++ = a single % value ≧ 40%)
